Our source for the EC50 and Activity values is ChEMBL document CHEMBL5523680, “Small molecule modulators of cystic fibrosis transmembrane conductance regulator (CFTR): Structure, classification, and mechanisms” (Eur J Med Chem, 2024).

The target of experiment [1] is Cystic fibrosis transmembrane conductance regulator (Homo sapiens, UniProt P13569, G551D). As to the kind of experiment: Potentiation of CFTR G551D mutant (unknown origin) expressed in FRT cells. It is filed as cell-based.
The target in experiment [2] is T1, Cystic fibrosis transmembrane conductance regulator (Homo sapiens, UniProt P13569, F508DEL). As to the kind of experiment: Potentiation of CFTR F508del mutant (unknown origin) expressed in NIH3T3 cells. The format is cell-based.
T1 sequence (P13569 as listed by the source): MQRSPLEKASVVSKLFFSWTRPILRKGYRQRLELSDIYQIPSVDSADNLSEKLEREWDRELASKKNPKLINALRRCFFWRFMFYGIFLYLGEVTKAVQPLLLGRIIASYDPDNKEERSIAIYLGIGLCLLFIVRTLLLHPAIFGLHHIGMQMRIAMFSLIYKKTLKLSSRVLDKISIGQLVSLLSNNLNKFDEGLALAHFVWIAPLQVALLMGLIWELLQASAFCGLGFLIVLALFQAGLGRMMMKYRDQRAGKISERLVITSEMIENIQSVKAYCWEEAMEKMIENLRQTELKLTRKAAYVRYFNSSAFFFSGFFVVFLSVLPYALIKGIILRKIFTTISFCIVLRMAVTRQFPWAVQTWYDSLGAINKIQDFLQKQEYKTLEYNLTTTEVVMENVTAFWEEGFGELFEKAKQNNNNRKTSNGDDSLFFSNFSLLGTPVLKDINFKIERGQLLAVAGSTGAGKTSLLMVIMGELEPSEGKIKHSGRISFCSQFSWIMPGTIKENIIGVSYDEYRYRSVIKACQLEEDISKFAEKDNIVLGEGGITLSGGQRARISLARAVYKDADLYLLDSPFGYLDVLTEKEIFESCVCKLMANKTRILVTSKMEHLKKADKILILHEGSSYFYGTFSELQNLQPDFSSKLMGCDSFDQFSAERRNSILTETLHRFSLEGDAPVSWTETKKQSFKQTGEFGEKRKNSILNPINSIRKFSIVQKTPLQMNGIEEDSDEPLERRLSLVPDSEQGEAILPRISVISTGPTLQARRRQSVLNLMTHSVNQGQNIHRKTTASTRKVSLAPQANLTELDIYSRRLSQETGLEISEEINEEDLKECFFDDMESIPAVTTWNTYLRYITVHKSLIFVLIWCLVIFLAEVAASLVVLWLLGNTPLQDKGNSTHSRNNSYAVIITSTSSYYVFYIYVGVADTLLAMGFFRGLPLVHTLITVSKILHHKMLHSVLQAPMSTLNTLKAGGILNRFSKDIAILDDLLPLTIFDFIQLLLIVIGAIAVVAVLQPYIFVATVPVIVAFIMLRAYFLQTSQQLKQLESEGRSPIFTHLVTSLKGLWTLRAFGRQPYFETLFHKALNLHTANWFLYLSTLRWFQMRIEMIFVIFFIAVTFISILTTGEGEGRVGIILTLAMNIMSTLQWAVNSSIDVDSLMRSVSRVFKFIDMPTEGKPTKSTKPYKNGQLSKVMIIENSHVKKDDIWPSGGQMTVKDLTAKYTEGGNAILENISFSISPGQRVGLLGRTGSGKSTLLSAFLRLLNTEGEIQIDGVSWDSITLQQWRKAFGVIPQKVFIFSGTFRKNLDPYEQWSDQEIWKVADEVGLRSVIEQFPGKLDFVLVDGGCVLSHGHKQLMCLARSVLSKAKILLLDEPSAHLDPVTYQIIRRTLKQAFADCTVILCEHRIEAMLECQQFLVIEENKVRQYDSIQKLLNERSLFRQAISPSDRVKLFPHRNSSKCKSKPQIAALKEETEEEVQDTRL
Experiment [3] addresses T1, Cystic fibrosis transmembrane conductance regulator. Description: Corrector activity at […] CFTR F508del mutant (unknown origin) expressed in BHK cells assessed as increase in chloride secretion […]. It is filed as cell-based. On the technique in general: Immunoblotting shows a protein as a band on a membrane.
Experiment [4] addresses T2, Cystic fibrosis transmembrane conductance regulator (Homo sapiens, UniProt P13569, N1303K). Description: Potentiation of CFTR N1303K mutant (unknown origin) transfected in […] FRT cells in presence of forskolin/VX-770. The format is cell-based.
The target of experiment [5] is Cystic fibrosis transmembrane conductance regulator (Homo sapiens, UniProt P13569, W1282X). Description: Potentiation of CFTR W1282X mutant (unknown origin) transfected in […] FRT cells in presence of forskolin/VX-770. It is filed as cell-based.
For experiment [6], the system named is Cystic fibrosis transmembrane conductance regulator (Homo sapiens), P13569 [G551D]. As to the kind of experiment: Potentiation of CFTR G551D mutant (unknown origin) expressed in FRT cells assessed as increase in chloride current in presence of VX-770 relative to control. It is filed as cell-based. Particulars: filed as activator.
Sequence of Cystic fibrosis transmembrane conductance regulator (Homo sapiens), P13569 [G551D] (P13569 whole entry G551D): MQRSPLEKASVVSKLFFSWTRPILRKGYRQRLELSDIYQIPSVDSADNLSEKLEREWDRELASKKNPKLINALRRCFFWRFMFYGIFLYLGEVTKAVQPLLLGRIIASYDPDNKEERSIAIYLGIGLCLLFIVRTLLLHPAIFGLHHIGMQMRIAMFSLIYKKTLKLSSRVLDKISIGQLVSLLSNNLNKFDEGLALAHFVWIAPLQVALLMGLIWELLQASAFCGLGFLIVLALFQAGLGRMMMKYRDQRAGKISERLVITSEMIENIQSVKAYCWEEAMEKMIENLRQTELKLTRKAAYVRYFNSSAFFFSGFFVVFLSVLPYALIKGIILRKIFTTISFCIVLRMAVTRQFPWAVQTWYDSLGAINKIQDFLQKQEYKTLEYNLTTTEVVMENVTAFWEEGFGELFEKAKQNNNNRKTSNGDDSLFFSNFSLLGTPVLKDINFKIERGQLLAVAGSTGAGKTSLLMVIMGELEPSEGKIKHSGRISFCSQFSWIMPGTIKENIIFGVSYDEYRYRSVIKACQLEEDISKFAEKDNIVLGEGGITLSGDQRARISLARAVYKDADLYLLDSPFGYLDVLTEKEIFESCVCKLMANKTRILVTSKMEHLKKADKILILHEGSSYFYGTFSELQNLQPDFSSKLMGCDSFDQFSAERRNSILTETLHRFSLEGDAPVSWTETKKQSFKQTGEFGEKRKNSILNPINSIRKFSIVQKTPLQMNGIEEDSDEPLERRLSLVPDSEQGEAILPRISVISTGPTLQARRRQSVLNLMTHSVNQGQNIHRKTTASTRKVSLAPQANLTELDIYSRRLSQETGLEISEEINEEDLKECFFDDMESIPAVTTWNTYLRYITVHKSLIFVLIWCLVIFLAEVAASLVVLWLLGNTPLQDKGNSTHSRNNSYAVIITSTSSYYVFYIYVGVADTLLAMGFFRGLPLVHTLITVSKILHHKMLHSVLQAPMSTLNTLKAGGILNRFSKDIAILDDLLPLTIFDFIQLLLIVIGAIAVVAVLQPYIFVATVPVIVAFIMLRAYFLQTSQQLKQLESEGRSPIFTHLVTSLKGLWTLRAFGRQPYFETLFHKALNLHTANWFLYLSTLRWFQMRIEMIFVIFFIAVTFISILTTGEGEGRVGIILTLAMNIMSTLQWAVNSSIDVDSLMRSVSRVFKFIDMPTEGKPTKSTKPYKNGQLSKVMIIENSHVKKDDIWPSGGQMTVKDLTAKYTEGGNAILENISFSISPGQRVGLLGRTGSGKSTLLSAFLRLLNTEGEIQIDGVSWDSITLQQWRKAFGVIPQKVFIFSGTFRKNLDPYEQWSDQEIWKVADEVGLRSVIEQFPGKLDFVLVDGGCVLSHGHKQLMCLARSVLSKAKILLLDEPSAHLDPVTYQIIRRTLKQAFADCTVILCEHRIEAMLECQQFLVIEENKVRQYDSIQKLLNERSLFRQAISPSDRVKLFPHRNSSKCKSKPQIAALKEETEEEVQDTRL
Experiment [7] has as its target T1, Cystic fibrosis transmembrane conductance regulator. As to the kind of experiment: Activation of CFTR F508del mutant (unknown origin).
Experiment [8] shares this target. As to the kind of experiment: Potentiation of CFTR F508del mutant (unknown origin) in FRT cells assessed as rescue of CFTR mutant incubated for 24 hrs in presence of VX-770. It is filed as cell-based.
The target of experiment [9] is T2, Cystic fibrosis transmembrane conductance regulator. As to the kind of experiment: Potentiation of CFTR N1303K mutant (unknown origin) expressed in FRT cells assessed as increase in CFTR mutant activity. It is filed as cell-based.

T2 sequence (P13569 whole entry N1303K): as the sequence (P13569 whole entry G551D) above, with D551G, N1303K counted along it
Sequence of Cystic fibrosis transmembrane conductance regulator (Homo sapiens, UniProt P13569, G551D) (P13569 whole entry G551D): as the sequence (P13569 whole entry G551D) above

Broadly, the EC50 is the concentration that produces a half-maximal response. As to `O=C(Nc1ccc2cc[nH]c2c1)c1c[nH]c2ccccc2c1=O`, the EC50 in [1] stood at 100 nM. For `O=C(Nc1ncc(Cc2ccccc2Cl)s1)C(c1ccccc1)c1ccccc1`, the values for the EC50 in experiment [2] and in experiment [3] were 7000 nM and 81 nM, respectively. As to `CCCCN1CC(S(=O)(=O)Nc2ccc(CC)cc2)c2cccnc21` (stereo unspecified), the values for the EC50 in experiment [4] and in experiment [5] were 1900 nM and 1000 nM, respectively. The Activity in [6] was 65%. With `O=P(O)(CCP(=O)(O)c1ccccc1)c1ccccc1`, the EC50 in experiment [7] was 1000 nM.

On to `OC(C1=NC(c2ccc(Br)cc2)NN1)c1ccc(Br)cc1` (stereo unspecified), for which a half-maximal response in experiment [7] (EC50) required 2700 nM. `COc1ccc(S(=O)(=O)N2CCN(C(C)c3nc(OC4CCCCC4)c4ccccc4n3)CC2)cc1` (stereo unspecified): the EC50 in [2] was determined as 3300 nM. Consider `OC(C1=CNNN1c1ccc(Br)cc1)c1ccccc1Br` (stereo unspecified), for which, in experiment [7], a half-maximal effect (EC50) was put at 4200 nM. Same read-out and setting: the same measure for `OCc1cccc(N2C=CN(c3ccccc3)N2)c1`: 1900 nM; for `OC(C1=NC(c2ccc(Br)cc2)NN1)c1ccccc1Br` (stereo unspecified): 3000 nM. In the case of `Cc1ncccc1CNC(=O)c1ccc2c(c1)CC[C@@H]1C[C@@](O)(CCC(F)(F)F)CC[C@@]21Cc1ccccc1`, the EC50 in experiment [8] came to 400 nM. For `Cc1ccc(S(=O)(=O)Nc2nc3ccccc3nc2C2CCOCC2)cc1`, the EC50 in experiment [7] stood at 930 nM. Regarding `CC(C)(CO)c1cc2cc(NC(=O)C3(c4ccc5c(c4)OC(F)(F)O5)CC3)c(F)cc2n1C[C@@H](O)CO` [TEZACAFTOR], the EC50 in [2] amounted to 1100 nM.

`O=c1cc(-c2ccc(O)cc2)oc2cc(O)cc(O)c12` [APIGENIN]: the EC50 in experiment [9] stood at 10800 nM.
